# Test results taken from patent US20210403864A1, “METHODS AND COMPOSITIONS FOR TREATING ACTIVATED G-ALPHA Q MUTANT CANCERS OR MELANOCYTIC MALIGNANCIES” (Memorial Sloan Kettering Cancer Center, priority 2018, published 2021).
# Numbering of substitutions follows the chain as printed. Where two headings read alike, the source gives them in different places.
# Columns and labels:
# GNAQ^Q209L = biological target: T1, GNAQ^Q209L (Homo sapiens, UniProt P50148, Q209L); test: IP1 accumulation assay in transiently transfected HEK293T cells; format: cell-based; settings: 24-hour treatment
# T1 construct: host or cells: melan-a (immortalized mouse melanocytes), retroviral transduction with MSCV-Puro
# T1 sequence (P50148 1-359 Q209L): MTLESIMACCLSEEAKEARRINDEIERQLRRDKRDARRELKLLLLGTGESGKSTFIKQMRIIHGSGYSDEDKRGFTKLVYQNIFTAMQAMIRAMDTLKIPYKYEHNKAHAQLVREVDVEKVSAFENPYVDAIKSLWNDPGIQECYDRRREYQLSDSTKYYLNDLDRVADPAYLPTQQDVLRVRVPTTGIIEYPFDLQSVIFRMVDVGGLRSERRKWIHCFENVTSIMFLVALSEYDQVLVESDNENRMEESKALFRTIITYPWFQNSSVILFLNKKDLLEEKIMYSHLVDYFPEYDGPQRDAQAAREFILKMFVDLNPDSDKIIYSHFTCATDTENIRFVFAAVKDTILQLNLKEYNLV
# Description: (§1) Cells were treated with YM at increasing doses for 24 hours. Error bars, s.e.m. from three biological replicates, each with three technical replicates.
# (§2) Exogenous Gene Expression. HEK293T cells were transiently transfected to express vectors containing synthetic CYSLTR2 (Moore A R, et al., Nat Genet. 48(6):675 (2016)) and GNAQ. Genewiz was used to codon optimize these sequences for expression in mammalian cells. The human GNAQ α-subunit plasmids encoding for GNAQ mutants Q209L, R183Q and G48V were generated by Quick Change (Agilent Technologies, Santa Clara, Calif.) site-directed mutagenesis. HEK293T cells were transiently transfected with the plasmids encoding for GNAQ WT and mutants subcloned into pcDNA3.1(+) using Lipofectamine according to the manufacturer's instructions. Briefly, 9,000 HEK293T cells were transfected in low-volume 384-well plates with 11 ng of total DNA/well for 24 hours. Human cDNAs for WT CYSLTR2 and GNAQ were obtained from Origene and cloned into MSCV-Puro (Addgene plasmid #68469) for stable expression in melan-a cells via retroviral transduction with X-tremeGENE 9 (Sigma-Aldrich, St. Louis Mo.). Quikchange primers were used to introduce the various mutant constructs. All constructs were confirmed by sequencing. The primers used in the experiments described herein are provided below: […]
# (§3) IP1 Accumulation Assay. IP1 concentrations in GNAQ-transfected HEK293T cells, GNAQ-expressing melan-a cells and uveal melanoma cells was measured using a competitive homogenous time resolved fluorescence (HTRF) assay (CisBio, Bedford, Mass.). Briefly, 9,000 transiently transfected-HEK293T cells, 5,000 melan-a cells and 5,000 uveal melanoma cells were seeded in low-volume 384-well plates in 7 μL media for 24 hours prior YM-254890 treatment. Cells were then treated with various concentrations of YM-254890 diluted in the appropriate media at 37° C. for 3 hours or 24 hours. […] Following incubation, cells were lysed by adding 3 μL/well of d2-labeled IP1 analogue as the fluorescence acceptor and the Terbium cryptate-labeled anti-IP1 mAb as the fluorescence donor, diluted in the kit-supplied lysis buffer. The plates were incubated overnight at RT and time-resolved fluorescence signals were read using the BioTek Synergy NEO plate reader (BioTek Instruments, Winooski, Vt.) at 620 nm and […]. Results were calculated as a 665 nm/620 nm signal ratio, and IP1 concentrations were interpolated from a standard curve prepared using the supplied IP1 calibrator. […] Dose-response curves and bar graphs were analyzed using GraphPad Prism 7.0 software. […]
# GNAQ^R183Q = biological target: T2, GNAQ^R183Q (Homo sapiens, UniProt P50148, R183Q); test: as above; format: cell-based; settings: 24-hour treatment
# T2 construct: host or cells: melan-a (immortalized mouse melanocytes), retroviral transduction with MSCV-Puro
# T2 sequence (P50148 1-359 R183Q): T1 sequence (P50148 1-359 Q209L) with R183Q, L209Q
# Description: as §1, §2, §3
# GNAQ^G48V = biological target: T3, GNAQ^G48V (Homo sapiens, UniProt P50148, G48V); test: as above; format: cell-based; settings: 24-hour treatment
# T3 construct: host or cells: melan-a (immortalized mouse melanocytes), retroviral transduction with MSCV-Puro
# T3 sequence (P50148 1-359 G48V): T1 sequence (P50148 1-359 Q209L) with G48V, L209Q
# Description: as §1, §2, §3
# [1] = tested on: BRAF-mutant A375 cutaneous melanoma cells; test: Colony formation assay; format: cell-based, human; settings: 1000 cells per well, until colonies visible in vehicle plates
# Description: (§4) To evaluate the effect of YM-254890 and trametinib in vitro, colony formation assays were performed. 1000 cells per well of the following cell lines were plated: (1) BRAF-mutant A375 cutaneous melanoma cells, (2) Gq-mutant Mel202 cells, and (3) Gq-mutant OMIM1.3 uveal melanoma cells. The cells were then treated with a negative vehicle control, YM-254890, trametinib, or both. Cells were allowed to grow until visible colonies formed in the vehicle-treated plates.
# Gq-mutant Mel202 cells = test: Colony formation assay; format: cell-based, human; settings: 1000 cells per well, until colonies visible in vehicle plates
# Description: as §4
# [2] = tested on: Gq-mutant OMIM1.3 uveal melanoma cells; test: Colony formation assay; format: cell-based, human; settings: 1000 cells per well, until colonies visible in vehicle plates
# Description: as §4
# Gαq^Q209L = Gαq^Q209L (Homo sapiens, UniProt P50148, Q209L); settings: overexpression systems, literature, cited from earlier work
substance,measurement,setting,value
YM-254890,inhibition of signaling (IP1 accumulation),GNAQ^Q209L,incompletely/poorly inhibited
same,relative sensitivity to YM (IP1 accumulation),GNAQ^Q209L,most resistant
same,fold less sensitive to YM compared to CYSLTR2^L129Q and GNAQ^G48V (IP1 accumulation),GNAQ^R183Q,~20 fold
same,potency of inhibition of IP1 accumulation,GNAQ^G48V,subnanomolar potency
same,colony formation,[1],resistant
same,colony formation,Gq-mutant Mel202 cells,moderate sensitivity
same,colony formation,[2],moderate sensitivity
same,inhibition of aberrant Gαq signaling downstream of Gαq^Q209L,Gαq^Q209L,ineffective
same,inhibition of aberrant Gαq signaling downstream of Gαq^Q209L,Gαq^Q209L; listed as YM,unable to inhibit
